Laboratory results reported in patent publication US8030443B2, “Squamous cell carcinoma antigen-derived peptide binding to HLA-A24 molecule” (Kurume University, priority 2005, dated 2011).

Test system: peptide-specific IgG in sera of cancer patients and healthy donors
Experiment: Measurement of anti-peptide IgG in plasma by LUMINEX multiplexed flow cytometric assay
Format: binding, human
Procedure: The levels of anti-peptide immunoglobulin G (IgG) were measured by the LUMINEX™ system (multiplexed flow cytometric assay) as previously reported (Komatsu N, Shichijo S, Nakagawa M, Itoh K. New multiplexed flow cytometric assay to measure anti-peptide antibody: a novel tool for monitoring immune responses to peptides used for immunization. Scand J Clin Lab Invest 2004; 64:1-11). In brief, plasma was incubated with 25 μl of peptide-coupled color-coded beads for 2 hr at room temperature on a plate shaker. After incubation, the mixture was washed with a vacuum manifold apparatus and incubated with 100 μl of biotinylated goat anti-human IgG (γ chain-specific)(BA-3080, Vector Laboratories, Burlingame, Calif., USA) for 1 h at room temperature. The plate was then washed, followed by the addition of 100 μl of streptavidin-PE (S-866, Molecular Probes, Eugene, Oreg., USA) into wells, and was incubated for 30 min at room temperature on a plate shaker. The bound beads were washed three times followed by the addition of 100 μl of Tween-PBS into each well. Fifty μl of sample was detected using the LUMINEX™ system (multiplexed flow cytometric assay). To confirm the specificity of IgG to a SCCA peptide, sample plasma was cultured in plates coated with a corresponding SCCA peptide, or with an irrelevant SCCA peptide. After the operation was repeated three times, the levels of the corresponding SCCA peptide-specific IgG in the resulting supernatant were determined by the LUMINEX™ system (multiplexed flow cytometric assay).
These 9 SCCA-derived peptides were screened based on their ability to be recognized by IgG in cancer patients. Peptide-specific IgG was measured by a multiplexed flow cytometric assay (LUMINEX™ (multiplexed flow cytometric assay)). The plasma samples were derived from 35 uterine cervical SCC patients, 10 breast adenocarcinoma patients, 10 pancreatic adenocarcinoma patients, 10 gastric adenocarcinoma, and 6 colon adenocarcinoma patients. The level of fluorescence intensity was judged to be significant when exceeded 100 at an 1/100 dilution.

With “EFHCNHPFL (SCCA 362-370 peptide) [SCCA-derived peptide, position 362-370]” the “Total: healthy donors with significant peptide-reactive IgG / donors tested” value (10 healthy donors, significant when fluorescence intensity exceeded 100 at 1/100 dilution) was 1/10, the “Total: cancer patients with significant peptide-reactive IgG / patients tested” value (71 cancer patients, significant when fluorescence intensity exceeded 100 at 1/100 dilution) was 10/71 and the Fluorescence intesity (serum of Breast Ca. patient #36, 1:100 dilution) was 10. The Fluorescence intesity (serum of Breast Ca. patient #37, 1:100 dilution) was 24, the Fluorescence intesity (serum of Breast Ca. patient #38, 1:100 dilution) was 8 and the Fluorescence intesity (serum of Breast Ca. patient #39, 1:100 dilution) was 11. The Fluorescence intesity (serum of Breast Ca. patient #40, 1:100 dilution) was 7, the Fluorescence intesity (serum of Breast Ca. patient #41, 1:100 dilution) was 215 and the Fluorescence intesity (serum of Breast Ca. patient #42, 1:100 dilution) was 19. The Fluorescence intesity (serum of Breast Ca. patient #43, 1:100 dilution) was 10, the Fluorescence intesity (serum of Breast Ca. patient #44, 1:100 dilution) was 0 and the Fluorescence intesity (serum of Breast Ca. patient #45, 1:100 dilution) was 20. It also gave a Fluorescence intesity (serum of Colon Ca. patient #66, 1:100 dilution) of 0, a Fluorescence intesity (serum of Colon Ca. patient #67, 1:100 dilution) of 0 and a Fluorescence intesity (serum of Colon Ca. patient #68, 1:100 dilution) of 0. For the same sequence, the Fluorescence intesity (serum of Colon Ca. patient #69, 1:100 dilution) was 0, the Fluorescence intesity (serum of Colon Ca. patient #70, 1:100 dilution) was 1 and the Fluorescence intesity (serum of Colon Ca. patient #71, 1:100 dilution) was 19. For the same sequence, the Fluorescence intesity (serum of Gastric Ca. patient #56, 1:100 dilution) was 0, the Fluorescence intesity (serum of Gastric Ca. patient #57, 1:100 dilution) was 0 and the Fluorescence intesity (serum of Gastric Ca. patient #58, 1:100 dilution) was 6. The Fluorescence intesity (serum of Gastric Ca. patient #59, 1:100 dilution) was 10, the Fluorescence intesity (serum of Gastric Ca. patient #60, 1:100 dilution) was 0 and the Fluorescence intesity (serum of Gastric Ca. patient #61, 1:100 dilution) was 1. For the same sequence, the Fluorescence intesity (serum of Gastric Ca. patient #62, 1:100 dilution) was 0, the Fluorescence intesity (serum of Gastric Ca. patient #63, 1:100 dilution) was 0 and the Fluorescence intesity (serum of Gastric Ca. patient #64, 1:100 dilution) was 0. The Fluorescence intesity (serum of Gastric Ca. patient #65, 1:100 dilution) was 0, the Fluorescence intesity (serum of Healthy Donor #1, 1:100 dilution) was 0 and the Fluorescence intesity (serum of Healthy Donor #2, 1:100 dilution) was 37. The Fluorescence intesity (serum of Healthy Donor #3, 1:100 dilution) was 0, the Fluorescence intesity (serum of Healthy Donor #4, 1:100 dilution) was 0 and the Fluorescence intesity (serum of Healthy Donor #5, 1:100 dilution) was 0. The Fluorescence intesity (serum of Healthy Donor #6, 1:100 dilution) was 0, the Fluorescence intesity (serum of Healthy Donor #7, 1:100 dilution) was 0 and the Fluorescence intesity (serum of Healthy Donor #8, 1:100 dilution) was 283. For the same sequence, the Fluorescence intesity (serum of Healthy Donor #9, 1:100 dilution) was 29, the Fluorescence intesity (serum of Healthy Donor #10, 1:100 dilution) was 0 and the Fluorescence intesity (serum of Pancreas Ca. patient #46, 1:100 dilution) was 0. The Fluorescence intesity (serum of Pancreas Ca. patient #47, 1:100 dilution) was 1, the Fluorescence intesity (serum of Pancreas Ca. patient #48, 1:100 dilution) was 339 and the Fluorescence intesity (serum of Pancreas Ca. patient #49, 1:100 dilution) was 0. It also gave a Fluorescence intesity (serum of Pancreas Ca. patient #50, 1:100 dilution) of 0, a Fluorescence intesity (serum of Pancreas Ca. patient #51, 1:100 dilution) of 0 and a Fluorescence intesity (serum of Pancreas Ca. patient #52, 1:100 dilution) of 104. It also gave a Fluorescence intesity (serum of Pancreas Ca. patient #53, 1:100 dilution) of 0, a Fluorescence intesity (serum of Pancreas Ca. patient #54, 1:100 dilution) of 6 and a Fluorescence intesity (serum of Pancreas Ca. patient #55, 1:100 dilution) of 0. The Fluorescence intesity (serum of Uterine cervical Ca. patient #1, 1:100 dilution) was 0, the Fluorescence intesity (serum of Uterine cervical Ca. patient #2, 1:100 dilution) was 0 and the Fluorescence intesity (serum of Uterine cervical Ca. patient #3, 1:100 dilution) was 0. The Fluorescence intesity (serum of Uterine cervical Ca. patient #4, 1:100 dilution) was 0, the Fluorescence intesity (serum of Uterine cervical Ca. patient #5, 1:100 dilution) was 3 and the Fluorescence intesity (serum of Uterine cervical Ca. patient #6, 1:100 dilution) was 611. The Fluorescence intesity (serum of Uterine cervical Ca. patient #7, 1:100 dilution) was 11, the Fluorescence intesity (serum of Uterine cervical Ca. patient #8, 1:100 dilution) was 49 and the Fluorescence intesity (serum of Uterine cervical Ca. patient #9, 1:100 dilution) was 90. It also gave a Fluorescence intesity (serum of Uterine cervical Ca. patient #10, 1:100 dilution) of 15, a Fluorescence intesity (serum of Uterine cervical Ca. patient #11, 1:100 dilution) of 28 and a Fluorescence intesity (serum of Uterine cervical Ca. patient #12, 1:100 dilution) of 37. For the same sequence, the Fluorescence intesity (serum of Uterine cervical Ca. patient #13, 1:100 dilution) was 25, the Fluorescence intesity (serum of Uterine cervical Ca. patient #14, 1:100 dilution) was 17 and the Fluorescence intesity (serum of Uterine cervical Ca. patient #15, 1:100 dilution) was 106. The Fluorescence intesity (serum of Uterine cervical Ca. patient #16, 1:100 dilution) was 191, the Fluorescence intesity (serum of Uterine cervical Ca. patient #17, 1:100 dilution) was 56 and the Fluorescence intesity (serum of Uterine cervical Ca. patient #18, 1:100 dilution) was 50. It also gave a Fluorescence intesity (serum of Uterine cervical Ca. patient #19, 1:100 dilution) of 48, a Fluorescence intesity (serum of Uterine cervical Ca. patient #20, 1:100 dilution) of 104 and a Fluorescence intesity (serum of Uterine cervical Ca. patient #21, 1:100 dilution) of 22. The Fluorescence intesity (serum of Uterine cervical Ca. patient #22, 1:100 dilution) was 27, the Fluorescence intesity (serum of Uterine cervical Ca. patient #23, 1:100 dilution) was 56 and the Fluorescence intesity (serum of Uterine cervical Ca. patient #24, 1:100 dilution) was 1234. It also gave a Fluorescence intesity (serum of Uterine cervical Ca. patient #25, 1:100 dilution) of 21, a Fluorescence intesity (serum of Uterine cervical Ca. patient #26, 1:100 dilution) of 83 and a Fluorescence intesity (serum of Uterine cervical Ca. patient #27, 1:100 dilution) of 36. It also gave a Fluorescence intesity (serum of Uterine cervical Ca. patient #28, 1:100 dilution) of 153, a Fluorescence intesity (serum of Uterine cervical Ca. patient #29, 1:100 dilution) of 20 and a Fluorescence intesity (serum of Uterine cervical Ca. patient #30, 1:100 dilution) of 35. The Fluorescence intesity (serum of Uterine cervical Ca. patient #31, 1:100 dilution) was 133, the Fluorescence intesity (serum of Uterine cervical Ca. patient #32, 1:100 dilution) was 23 and the Fluorescence intesity (serum of Uterine cervical Ca. patient #33, 1:100 dilution) was 93. For the same sequence, the Fluorescence intesity (serum of Uterine cervical Ca. patient #34, 1:100 dilution) was 16 and the Fluorescence intesity (serum of Uterine cervical Ca. patient #35, 1:100 dilution) was 21.
